Experimental findings from patent US7342014B2, “Diamine derivatives” (Daiichi Pharmaceutical Co., Ltd., priority 2001, dated 2008) are described below.

Structures can show the parent of a compound that is named as a salt.

The target of series [1] is T1, human FXa (Homo sapiens, UniProt P00742).
T1 construct: purchased Enzyme Research Labolatories, Inc
Kind of series: Determination of human FXa-inhibiting effect (IC50 value). The following applies: human FXa, substrate S-2222, absorbance at 405 nm, room temperature; read-out: Human FXa-inhibiting effect (IC50). It is filed as biochemical. An excerpt: Determination of Human FXa-inhibiting Effect (IC50 Value)
As a control, Tris buffer was used in place of the test compound.

Series [2] deals with T1, human FXa. Kind of series: Determination of anti-FXa activity in rat plasma after oral administration. It is filed as in vivo. The settings on record: rats, oral dose of 10 mg/kg, plasma collected 0.5, 1, 2 and 4 hours after administration, human FXa and S-2222; read-out: FXa-inhibiting activity (percent inhibition) in plasma. Here is the method: Determination of Anti-FXa Activity in Rat Plasma After Oral Administration
(A) Administration and Blood Collection:
A drug solution (1 mg/ml) obtained by dissolving or suspending a test compound (10 mg) in 0.5% methyl cellulose (MC) was orally administered to rats (10 ml/kg). […] For rats of a control group, the same blood collection was conducted after a 0.5% MC solution was administered. Each blood sample was centrifuged at 1500×g for 10 minutes at 4° C. to separate plasma, and the plasma was preserved at −40° C. until it was used in the following determination of anti-FXa activity in plasma.
(B) Determination of FXa-inhibiting Activity in Plasma:
Tris buffer (100 mM Tris, 200 mM potassium chloride, 0.2% BSA, pH 7.4) (5456 μl), human FXa (2.5 U/ml, 44 μl) and water (550 μl) were mixed. The resultant human FXa solution was used in the following test.
The anti-FXa activity, i.e., percent inhibition (%) was calculated in accordance with the following equation: […]

T1 sequence (P00742 235-488 limits assumed): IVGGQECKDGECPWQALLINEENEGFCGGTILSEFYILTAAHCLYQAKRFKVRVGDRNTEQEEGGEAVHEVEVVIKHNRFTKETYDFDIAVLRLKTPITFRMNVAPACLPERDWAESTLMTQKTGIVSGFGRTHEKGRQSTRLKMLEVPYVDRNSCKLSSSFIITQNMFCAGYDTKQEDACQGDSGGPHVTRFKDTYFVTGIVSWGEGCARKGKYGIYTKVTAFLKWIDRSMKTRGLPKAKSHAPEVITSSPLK
T1 sequence (P00742 41-179 partner limits assumed): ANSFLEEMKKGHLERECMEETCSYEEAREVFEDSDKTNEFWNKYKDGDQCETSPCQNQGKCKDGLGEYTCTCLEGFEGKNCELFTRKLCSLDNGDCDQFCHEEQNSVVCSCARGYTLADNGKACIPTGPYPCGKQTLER

For the compound `CN1CCc2nc(C(=O)N[C@@H]3CN(C(=O)NC(C)(C)C)CC[C@@H]3NC(=O)c3cc4cc(Cl)ccc4[nH]3)sc2C1.Cl` (relative stereo) [Example 164, N-((3R*,4S*)-1-[(tert-Butylamino)carbonyl]-4-{[(5-chloroindol-2-yl)carbonyl]amino}piperidin-3-yl)-5-methyl-4,5,6,7-tetrahydrothiazolo[5,4-c]pyridine-2-carboxamide hydrochloride], the melting point (in general, the temperature, or range, at which the solid turns liquid) was 236 to 238 °C (dec.). Moreover, the concentration for half-maximal inhibition (IC50) – broadly, the point on the concentration scale where inhibition reaches its midpoint – on human FXa [1] was 4.8 nM.
On to `CCNC(=O)[C@H]1CC[C@H](NC(=O)c2cc3cc(Cl)ccc3[nH]2)[C@H](NC(=O)c2nc3c(s2)CN(C)CC3)C1` [Example 62, N-{(1R,2S,5S)-2-{[(5-Chloroindol-2-yl)carbonyl]amino}-5-[(ethylamino)carbonyl]cyclohexyl}-5-methyl-4,5,6,7-tetrahydrothiazolo[5,4-c]pyridine-2-carboxamide hydrochloride], for which, on human FXa [1], the concentration for half-maximal inhibition (IC50) was found to be 3.5 nM.
The same measure, in the same setting: for `CN1CCc2nc(C(=O)N[C@@H]3CN(S(=O)(=O)CC(=O)O)C[C@H]3NC(=O)c3cc4cc(Cl)ccc4[nH]3)sc2C1` [Example 101, 2-[((3R,4R)-3-{[(5-Chloroindol-2-yl)carbonyl]amino}-4-{[(5-methyl-4,5,6,7-tetrahydrothiazolo[5,4-c]pyridin-2-yl)carbonyl]amino}pyrrolidin-1-yl)sulfonyl]acetic acid] the value was 26 nM.
With `CN1CCc2nc(C(=O)N[C@@H]3C[C@@H](C(=O)N(C)C)CC[C@@H]3NC(=O)C(=O)Nc3ccc(Cl)cc3)sc2C1` [Example 191, N^1-(4-Chlorophenyl)-N^2-((1S,2R,4S)-4-[(dimethylamino)-carbonyl]-2-{[(5-methyl-4,5,6,7-tetrahydrothiazolo[5,4-c]-pyridin-2-yl)carbonyl]amino}cyclohexyl)ethanediamide hydrochloride], the inhibition (in general, the share of the control response that was lost under treatment) at 10 mg/kg at human FXa [2] was 62 to 96%. At human FXa [1], the 50% inhibitory concentration (IC50) was 1.2 nM.
With `CN1CCc2nc(C(=O)N[C@@H]3C[C@@H](C(=O)N(C)C)CC[C@@H]3NC(=O)C(=O)Nc3ccc(F)cc3)sc2C1` [Example 194, N^1-((1S,2R,4S)-4-[(Dimethylamino)carbonyl]-2-{[(5-methyl-4,5,6,7-tetrahydrothiazolo[5,4-c]pyridin-2-yl)carbonyl]amino}cyclohexyl)-N^2-(4-fluorophenyl)-ethanediamide hydrochloride], the inhibition at 10 mg/kg on human FXa [2] was 62 to 96%. The IC50 at human FXa [1] came to 5 nM.
For `CN1CCc2nc(C(=O)N[C@@H]3C[C@@H](C(=O)N(C)C)CC[C@@H]3NC(=O)C(=O)Nc3ccc(Br)cn3)sc2C1` [Example 204, N^1-(5-Bromopyridin-2-yl)-N^2-((1S,2R,4S)-4-[(dimethylamino)-carbonyl]-2-{[(5-methyl-4,5,6,7-tetrahydrothiazolo[5,4-c]-pyridin-2-yl)carbonyl]amino}cyclohexyl)ethanediamide hydrochloride], in that order: 62 to 96% and 1.5 nM.
